What was measured:
RPMI-8226 cells = assay: Gene profiling and GSEA in RPMI-8226 cells; format: cell-based; conditions: 500 nM for 4 days
[1] = biological target: T1, ENL YEATS-H3K27ac interaction (Homo sapiens, UniProt Q03111); assay: ALPHA assay, inhibition of ENL YEATS-H3K27ac interaction; conditions: read-out: IC50, inhibition of ENL YEATS-H3K27ac interaction
T1 sequence (Q03111 1-138 limits assumed): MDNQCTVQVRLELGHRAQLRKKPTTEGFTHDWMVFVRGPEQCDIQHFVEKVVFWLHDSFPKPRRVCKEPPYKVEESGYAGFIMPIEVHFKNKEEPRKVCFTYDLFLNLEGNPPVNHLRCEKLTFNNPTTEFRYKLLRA

[2] = test system: Kasumi-1, RPMI-8226 and U266 cells; conditions: read-out: EC50, proliferation; AML Kasumi-1 and myeloma RPMI-8226 and U266 cells, range over cell lines
From the text: (§1) FIGS. 6A-6G summarize the antitumor activities of ENL-targeting compounds.

Panc1 = conditions: read-out: EC50, proliferation; Panc1 (pancreatic) cells
From the text: as §1

MV4;11 cells = conditions: footnote b: reported in Li, et al. J Hematol Oncol, 2022, read-out: Anti-proliferative activity EC50, MV4; cited from earlier work
[3] = In vivo toxicity in C57BL/6 mice; conditions: 30 mg/kg/day for 13 days
Experimental: In vivo antitumor activity of compound 1 was evaluated in a commonly used mouse model of Molm-13 leukemia. First, in vivo toxicity was assessed in C57BL/6 mice.

Myc = Myc expression in RPMI-8226 cells; format: cell-based; conditions: 4 days
Molm-13 cells = assay: Anti-proliferative activity, Molm-13 cells; format: cell-based; conditions: Molm-13 cells, FIG. 6B
ENL = biological target: T2, ENL (Homo sapiens, UniProt Q03111); assay: ENL degradation in MV4;11 cells (Western blot); format: cell-based
T2 construct: tested whether the compounds degrade ENL and AF9 in MV4;11 leukemia cells; endogenous in cells; host or cells: MV4;11; Molm-13
T2 sequence (Q03111 1-559): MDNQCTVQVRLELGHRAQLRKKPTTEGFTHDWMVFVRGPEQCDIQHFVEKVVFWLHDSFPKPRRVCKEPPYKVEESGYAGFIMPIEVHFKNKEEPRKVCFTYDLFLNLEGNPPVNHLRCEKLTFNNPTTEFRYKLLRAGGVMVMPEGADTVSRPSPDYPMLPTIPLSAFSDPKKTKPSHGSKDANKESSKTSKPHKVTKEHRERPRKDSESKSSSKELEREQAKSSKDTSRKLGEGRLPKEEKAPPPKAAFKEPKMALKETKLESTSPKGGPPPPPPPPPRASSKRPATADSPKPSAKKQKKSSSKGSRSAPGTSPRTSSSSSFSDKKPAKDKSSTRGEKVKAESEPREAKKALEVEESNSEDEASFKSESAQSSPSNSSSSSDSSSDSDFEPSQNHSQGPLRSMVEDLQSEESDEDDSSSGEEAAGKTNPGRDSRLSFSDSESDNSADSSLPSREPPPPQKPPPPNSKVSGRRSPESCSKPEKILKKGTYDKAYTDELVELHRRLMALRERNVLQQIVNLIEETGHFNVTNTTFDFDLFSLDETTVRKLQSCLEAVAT
Experimental: Next, Applicant tested whether the compounds degrade ENL and AF9 in MV4;11 leukemia cells with the .MLL1-AF4 oncogene. Upon compound treatment for 24 h, the cells were washed, lysed, and the lysates subjected to SDS-PAGE (sodium dodecyl sulphate-polyacrylamide gel electrophoresis) followed by detection with Western blot.

mutant ENL (mENL) = biological target: T3, mutant ENL (mENL) (Homo sapiens, UniProt Q03111, INS117NHL); assay: Degradation of mutant and WT ENL in transfected HEK293T cells; format: cell-based
T3 construct: expressed in transfected cells; host or cells: HEK293T
Experimental: Ability of compound 1 to degrade mutant ENL, which has been implicated to cause Wilms tumor, was evaluated. […] A pcDNA3.1(+)-N-DYK plasmid containing a mutant ENL (mENL) with a short insertion of -NHL- between L117 and R118 was transfected into 5×10^5 HEK293T cells. Upon incubation for 24 h, expression of the FLAG-tagged mENL can be dose-dependently detected with as low as […] of the plasmid (FIG. 7A). Using a FLAG antibody appeared to be less quantitative because of a higher background staining for the control samples (FIGS. 7A-7C, left panels).
With 0.1 μg of the plasmid, compound 1 can efficiently degrade both WT and mutant ENL proteins with Dmax of ˜95% at ˜500 nM upon 24 h incubation (FIG. 7B). […] It was ineffective with […] of the plasmid (not shown), presumably because the rate of mENL synthesis in cells was higher than that of 1-mediated degradation.

Hela cell = conditions: Hela cells, footnote b: reported in Li, et al. J Hematol Oncol, 2022; read-out: Anti-proliferative activity EC50, Hela; cited from earlier work
Molm-13 leukemia = assay: Subcutaneous Molm-13 leukemia xenograft in NOD-SCID mice; format: in vivo
Experimental: In vivo antitumor activity of compound 1 was evaluated in a commonly used mouse model of Molm-13 leukemia. First, in vivo toxicity was assessed in C57BL/6 mice. […] Next, 10^6 Molm-13 cells were injected subcutaneously into NOD-SCID mice, which developed palpable tumors in ˜1 week and grew rapidly.

HoxA9, Meis1 and Myc = assay: Expression of HoxA9, Meis1 and Myc in Molm-13 cells; format: cell-based; conditions: 4 days
Experimental: Previous studies show ENL is required for expression of MLL1-target genes in MLL1-r leukemia. How compound 1-mediated ENL degradation changes expression of HoxA9, Meis1 and Myc, three characteristic genes in MLL1-r leukemia, was examined. Molm-13 cells were treated with compound 1 for 4 days, after which the RNAs were extracted and analyzed.

H3K79 methylation = assay: Nuclear H3K79 methylation in MV4;11 cells, 4 days; format: cell-based
From the text: Applicant further investigated how compound 1 affects ENL, AF9 and other proteins of SEC in the cytoplasmic and nuclear compartments, the latter of which are more relevant to the functions of these transcription cofactors. […] Upon treatment of MV4;11 cells with these compounds for 4 days, cytoplasmic and nuclear proteins were separated and subjected to SDS-PAGE/Western blot.

T3 sequence (Q03111 with tags, fused parts or gaps INS117NHL): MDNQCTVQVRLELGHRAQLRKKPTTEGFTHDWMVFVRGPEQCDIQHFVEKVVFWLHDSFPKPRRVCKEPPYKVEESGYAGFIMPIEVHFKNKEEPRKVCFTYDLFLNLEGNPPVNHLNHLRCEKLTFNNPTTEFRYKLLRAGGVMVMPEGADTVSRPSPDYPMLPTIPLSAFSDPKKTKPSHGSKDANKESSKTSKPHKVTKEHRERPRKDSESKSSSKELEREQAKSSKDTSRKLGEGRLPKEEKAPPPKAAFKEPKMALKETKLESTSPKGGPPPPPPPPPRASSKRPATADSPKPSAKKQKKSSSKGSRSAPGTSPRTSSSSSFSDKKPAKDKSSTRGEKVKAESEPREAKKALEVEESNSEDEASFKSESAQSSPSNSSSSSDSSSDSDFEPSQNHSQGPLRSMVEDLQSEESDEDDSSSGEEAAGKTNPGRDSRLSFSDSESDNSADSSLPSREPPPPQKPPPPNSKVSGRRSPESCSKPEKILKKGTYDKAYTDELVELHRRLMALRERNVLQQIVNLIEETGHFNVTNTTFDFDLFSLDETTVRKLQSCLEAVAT
T3 sequence (Q96SW2 whole entry partner): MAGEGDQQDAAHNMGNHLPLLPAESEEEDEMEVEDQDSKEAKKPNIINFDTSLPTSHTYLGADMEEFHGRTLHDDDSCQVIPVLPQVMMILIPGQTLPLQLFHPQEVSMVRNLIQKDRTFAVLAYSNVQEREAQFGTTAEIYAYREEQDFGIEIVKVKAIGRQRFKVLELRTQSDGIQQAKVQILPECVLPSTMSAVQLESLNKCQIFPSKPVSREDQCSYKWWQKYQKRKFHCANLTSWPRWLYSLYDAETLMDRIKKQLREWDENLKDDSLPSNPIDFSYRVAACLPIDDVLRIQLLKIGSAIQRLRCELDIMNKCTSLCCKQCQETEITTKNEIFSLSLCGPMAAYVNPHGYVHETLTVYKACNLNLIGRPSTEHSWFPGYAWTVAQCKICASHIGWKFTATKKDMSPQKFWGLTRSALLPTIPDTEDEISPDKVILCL

C[C@H]1CCCN1Cc1nc2cc(NC(=O)c3ccc4c(cnn4CCCCCCCCNc4cccc5c4C(=O)N(C4CCC(=O)NC4=O)C5=O)c3)ccc2[nH]1 (stereo partly drawn) [Compound 1]
expression of MYC target gene set (GSEA) (RPMI-8226 cells): significantly down-regulated | IC50 [1]: 170 nM | EC50 [2]: 1100 to 4100 nM | EC50 (Panc1): > 50000 nM | EC50 (MV4;11 cells): 570 nM | body weight [3]: did not cause significant weight losses | hematopoiesis and overt toxicities [3]: did not inhibit normal hematopoiesis or cause other overt toxicities | blood cell counts vs control ([3]; blood test on day-14): no significant differences in blood cell counts | expression of MYC (Myc): dose-dependently decreased expression of MYC | time-dependent activity against cell proliferation (Molm-13 cells): did not inhibit cell proliferation during the first 4 days | Dmax (maximal degradation), ENL (ENL; 24 h treatment): ~95% | concentration at which ENL is almost depleted (ENL; 24 h treatment): ~500 nM | DC50 (ENL; 24 h treatment, read-out: DC50 (concentration at which a protein is reduced by 50%), ENL): 37 nM | concentration of maximal ENL-degrading activity (ENL; FIG. 3D): ~500 nM | concentrations at which ENL level started to recover (hook effect) (ENL; FIG. 3D): 1 to 10 µM | Dmax, WT and mutant ENL (mutant ENL (mENL); 0.1 μg plasmid, ~500 nM, 24 h incubation): ~95% | degradation of WT and mutant ENLs (mutant ENL (mENL); 0.2 μg plasmid, 500 nM): reduced efficiency | degradation of WT and mutant ENLs (mutant ENL (mENL); 1 g of the plasmid): ineffective | EC50 (Hela cell): > 50000 nM | body weight (Molm-13 leukemia; 30 mg/kg/day for Day 3-15): did not cause significant weight losses | tumor growth (Molm-13 leukemia; 30 mg/kg/day for Day 3-15): significantly inhibited tumor growth | animal survival (Molm-13 leukemia; 30 mg/kg/day for Day 3-15, p<0.01): prolonged animal survivals | expression of HoxA9, Meis1 and Myc (HoxA9, Meis1 and Myc): significantly inhibit expression of these three genes in a generally dose-dependent manner | nuclear levels of H3K79 methylation (H3K79 methylation): not consistently affected

From US20250235437A1, “PROTEOLYSIS TARGETING CHIMERA (PROTAC) MOLECULE FOR DEGRADATION OF ENL AND CANCER THERAPY” (Baylor College of Medicine, priority 2022, published 2025)
